Laboratory results taken from ChEMBL document CHEMBL2429812, “Exploring multitarget interactions to reduce opiate withdrawal syndrome and psychiatric comorbidity” (ACS Med Chem Lett, 2013).
The source made the active and inactive calls. The calls are words filed in the database; no cut-off is given here.

Key:
[1] = molecular target: T1, 5-hydroxytryptamine receptor 1A (Homo sapiens, UniProt P08908); experiment: Binding affinity at human 5HT1A receptor
T1 sequence (P08908 whole entry): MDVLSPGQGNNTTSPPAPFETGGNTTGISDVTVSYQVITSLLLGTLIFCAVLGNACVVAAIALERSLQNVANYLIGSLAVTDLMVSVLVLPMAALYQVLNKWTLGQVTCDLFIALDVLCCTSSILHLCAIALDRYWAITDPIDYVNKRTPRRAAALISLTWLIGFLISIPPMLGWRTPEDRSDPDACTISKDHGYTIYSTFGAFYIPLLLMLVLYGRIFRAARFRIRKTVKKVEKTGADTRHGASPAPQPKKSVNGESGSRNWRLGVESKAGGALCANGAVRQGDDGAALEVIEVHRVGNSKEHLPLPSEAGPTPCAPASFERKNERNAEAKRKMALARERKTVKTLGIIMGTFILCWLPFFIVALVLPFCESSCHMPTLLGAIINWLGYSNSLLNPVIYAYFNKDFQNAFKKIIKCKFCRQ

[2] = molecular target: T2, 5-hydroxytryptamine receptor 1A (Homo sapiens) (UniProt P08908); experiment: Agonist activity at human 5HT1A receptor
T2 sequence (whole entry): T1 sequence (P08908 whole entry)

[3] = molecular target: T3, Alpha-2B adrenergic receptor (Homo sapiens) (UniProt P18089); experiment: Agonist activity at human alpha2B AR assessed as intrinsic activity
T3 sequence (whole entry): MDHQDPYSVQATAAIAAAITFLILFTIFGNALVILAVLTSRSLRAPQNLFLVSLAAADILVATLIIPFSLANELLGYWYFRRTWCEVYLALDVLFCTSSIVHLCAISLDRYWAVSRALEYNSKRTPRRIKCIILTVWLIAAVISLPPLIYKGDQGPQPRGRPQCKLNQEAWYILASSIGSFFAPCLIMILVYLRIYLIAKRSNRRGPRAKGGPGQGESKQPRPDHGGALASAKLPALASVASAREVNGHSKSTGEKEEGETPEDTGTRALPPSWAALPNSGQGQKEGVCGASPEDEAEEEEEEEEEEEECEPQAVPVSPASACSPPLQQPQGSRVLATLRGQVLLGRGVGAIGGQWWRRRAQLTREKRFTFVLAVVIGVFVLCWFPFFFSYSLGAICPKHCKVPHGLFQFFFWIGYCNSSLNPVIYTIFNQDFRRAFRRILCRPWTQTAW

[4] = molecular target: T4, Alpha-2C adrenergic receptor (Homo sapiens) (UniProt P18825); experiment: Agonist activity at human alpha2C AR assessed as intrinsic activity
T4 sequence (whole entry): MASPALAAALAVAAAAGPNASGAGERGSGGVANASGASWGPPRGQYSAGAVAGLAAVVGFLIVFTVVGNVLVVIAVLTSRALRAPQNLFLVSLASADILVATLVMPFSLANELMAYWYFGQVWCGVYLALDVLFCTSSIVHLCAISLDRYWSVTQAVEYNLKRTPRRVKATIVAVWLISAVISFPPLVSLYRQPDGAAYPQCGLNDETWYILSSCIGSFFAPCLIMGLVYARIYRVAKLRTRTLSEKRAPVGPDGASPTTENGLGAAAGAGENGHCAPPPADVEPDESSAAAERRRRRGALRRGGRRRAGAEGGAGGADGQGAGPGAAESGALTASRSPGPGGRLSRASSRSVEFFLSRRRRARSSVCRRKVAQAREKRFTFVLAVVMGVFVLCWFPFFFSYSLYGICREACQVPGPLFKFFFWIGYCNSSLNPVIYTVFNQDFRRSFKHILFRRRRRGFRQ

[5] = molecular target: T2, 5-hydroxytryptamine receptor 1A (Homo sapiens); experiment: Agonist activity at human 5HT1A receptor relative to control
[6] = molecular target: T5, Alpha-2A adrenergic receptor (Homo sapiens) (UniProt P08913); experiment: Antagonist activity at human alpha2A AR
T5 sequence (whole entry): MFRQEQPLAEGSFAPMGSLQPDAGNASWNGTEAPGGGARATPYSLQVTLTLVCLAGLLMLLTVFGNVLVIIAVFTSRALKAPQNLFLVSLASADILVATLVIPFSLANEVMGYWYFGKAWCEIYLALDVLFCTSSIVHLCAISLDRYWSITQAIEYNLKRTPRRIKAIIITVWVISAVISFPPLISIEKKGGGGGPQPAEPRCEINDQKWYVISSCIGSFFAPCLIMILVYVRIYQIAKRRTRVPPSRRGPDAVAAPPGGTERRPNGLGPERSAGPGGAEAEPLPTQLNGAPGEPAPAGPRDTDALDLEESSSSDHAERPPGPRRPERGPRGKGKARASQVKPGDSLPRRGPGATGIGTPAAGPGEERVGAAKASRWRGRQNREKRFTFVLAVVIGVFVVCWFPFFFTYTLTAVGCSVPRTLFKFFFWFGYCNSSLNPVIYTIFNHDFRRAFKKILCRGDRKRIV

[7] = tested on: Mus musculus; experiment: Antidepressant-like activity in mouse assessed as reduction in immobility time at 0.025 mg/kg, ip by forced swimming test; assay type: functional, organism-based; design: dose 0.025 mg/kg
[8] = molecular target: T6, Alpha-2A adrenergic receptor (Homo sapiens, UniProt P08913); experiment: Binding affinity at human alpha2A AR
T6 sequence (P08913 whole entry): T5 sequence (whole entry)

[9] = Binding affinity to I2 imidazoline binding site in rat brain membrane; assay type: cell membranes
[10] = molecular target: T2, 5-hydroxytryptamine receptor 1A (Homo sapiens); experiment: Agonist activity at human 5HT1A receptor assessed as intrinsic activity
[11] = molecular target: T7, Alpha-2B adrenergic receptor (Homo sapiens, UniProt P18089); experiment: Binding affinity at human alpha2B AR
T7 sequence (P18089 whole entry): T3 sequence (whole entry)

[12] = molecular target: T8, Alpha-2C adrenergic receptor (Homo sapiens, UniProt P18825); experiment: Agonist activity at human alpha2C AR
T8 sequence (P18825 whole entry): T4 sequence (whole entry)

[13] = molecular target: T7, Alpha-2B adrenergic receptor; experiment: Agonist activity at human alpha2B AR
[14] = molecular target: T8, Alpha-2C adrenergic receptor; experiment: Binding affinity at human alpha2C AR
[15] = molecular target: T3, Alpha-2B adrenergic receptor (Homo sapiens)
[16] = tested on: Mus musculus; experiment: Reduction in morphine dependence expression in ip dosed mouse assessed as dosed required for decrease in expression of naloxone-precipitated withdrawal syndrome; assay type: functional
[17] = tested on: Mus musculus; experiment: Antidepressant-like activity in mouse assessed as reduction in immobility time at 20 mg/kg, ip by forced swimming test; assay type: functional, organism-based; design: dose 20 mg/kg
[18] = tested on: Mus musculus; experiment: Antidepressant-like activity in mouse assessed as reduction in immobility time at 0.05 mg/kg, ip by forced swimming test; assay type: functional, organism-based; design: dose 0.05 mg/kg
[19] = tested on: Mus musculus; experiment: Antidepressant-like activity in ip dosed mouse assessed as dosed required for reduction in immobility time by forced swimming test; assay type: functional
[20] = tested on: Mus musculus; experiment: Reduction in morphine dependence expression in mouse assessed as decrease in expression of naloxone-precipitated withdrawal syndrome measuring somatic signs at 5 mg/kg, ip; assay type: functional; design: scale not given: the % may be the effect or the level left; conditions: route intraperitoneal
[21] = tested on: Mus musculus; experiment: Reduction in morphine dependence expression in mouse assessed as decrease in expression of naloxone-precipitated withdrawal syndrome measuring jumping at 5 mg/kg, ip; assay type: functional; design: scale not given: the % may be the effect or the level left; conditions: route intraperitoneal
[22] = tested on: Mus musculus; experiment: Antidepressant-like activity in mouse assessed as reduction in immobility time at 5 mg/kg, ip by forced swimming test in presence of WAY 100635; assay type: functional, organism-based; design: dose 5 mg/kg
[23] = tested on: Mus musculus; experiment: Antidepressant-like activity in mouse assessed as reduction in immobility time at 5 mg/kg, ip by forced swimming test in presence of idazoxan; assay type: functional, organism-based; design: dose 5 mg/kg
[24] = tested on: Mus musculus; experiment: Antidepressant-like activity in mouse assessed as reduction in immobility time at 5 mg/kg, ip by forced swimming test; assay type: functional; design: scale not given: the % may be the effect or the level left; conditions: route intraperitoneal
[25] = tested on: Mus musculus; experiment: Antidepressant-like activity in mouse assessed as reduction in immobility time at 1 to 20 mg/kg, ip by forced swimming test; assay type: functional, organism-based
[26] = tested on: Mus musculus; experiment: Antidepressant-like activity in mouse assessed as reduction in immobility time at 10 mg/kg, ip by forced swimming test; assay type: functional, organism-based; design: dose 10 mg/kg

C[C@H](Oc1ccccc1C1CC1)C1=NCCN1
Ki [1]: 0.00603 µM
pD2 [2]: 7.86
Intrinsic activity [3]: 0.65
Intrinsic activity [4]: 0.9
Emax [5]: 102%
pKb [6]: 7.7
Activity [7]: Active

c1ccc(OC2CC2)c(OCC2=NCCN2)c1
Ki [8]: 0.316 µM
Ki [1]: 0.0794 µM
pKi [9]: < 6
Intrinsic activity [10]: 1
Ki [11]: 0.794 µM
EC50 [12]: 1 µM
EC50 [13]: 3.16 µM
Ki [14]: 0.794 µM
pKb [6]: 6.22

CC(Oc1ccccc1Br)C1=NCCN1 (centres undefined)
Ki [1]: 0.148 µM
pKi [9]: < 6
Intrinsic activity [3]: 0.4
Intrinsic activity [4]: 0.87
pKb [6]: 7.04

C[C@@H](Oc1ccccc1C1CC1)C1=NCCN1
pD2 [2]: < 5
Intrinsic activity [4]: 0.5
pEC50 [15]: inactive
pKb [6]: 6.9
Activity [7]: inactive

c1ccc(C2CC2)c(OCC2=NCCN2)c1 [CIRAZOLINE]
Ki [1]: 0.0347 µM
pKi [9]: 8.35
Intrinsic activity [10]: 0.8
pKb [6]: 6.4

c1ccc2oc(-c3ncc[nH]3)cc2c1
Activity [16]: 20 mg/kg

C[C@@H](Oc1ccccc1CC1CC1)C1=NCCN1
Intrinsic activity [3]: 0.65
Intrinsic activity [4]: 0.75

CNCCC(Oc1ccc(C(F)(F)F)cc1)c1ccccc1 (centres undefined)
Activity [17]: Active

CC(Oc1ccccc1CC1CC1)C1=NCCN1 (centres undefined) [CYCLOMETHYLINE]
pKi [9]: < 6
Intrinsic activity [3]: 0.7
Intrinsic activity [4]: 0.8
Activity [18]: Active

c1ccc(OCC2=NCCN2)c(CC2CC2)c1
Ki [8]: 0.0776 µM
Ki [1]: 0.0832 µM
pKi [9]: 6.9
Intrinsic activity [10]: 0.8
Ki [11]: 0.501 µM
EC50 [12]: 0.234 µM
EC50 [13]: 1.7 µM
Ki [14]: 0.631 µM
pKb [6]: 6.35

C=CCc1ccccc1OC(C)C1=NCCN1 (centres undefined) [ALLYPHENYLINE]
pKi [9]: < 6
pD2 [2]: 6.86
Intrinsic activity [4]: 0.9
Activity [18]: Active
pEC50 [15]: inactive
pKb [6]: 7.4

CCCc1ccccc1OC(C)C1=NCCN1 (centres undefined)
Ki [8]: 0.0501 µM
Ki [1]: 0.0138 µM
pKi [9]: < 6
pD2 [2]: 7.08
Intrinsic activity [3]: 0.6
Intrinsic activity [4]: 0.75
Ki [11]: 0.537 µM
EC50 [12]: 0.0251 µM
EC50 [13]: 5.01 µM
Emax [5]: 118%
Ki [14]: 0.148 µM
pKb [6]: 7.05

CC(Oc1ccccc1C1CC1)C1=NCCN1 (centres undefined)
Ki [1]: 0.00724 µM
pKi [9]: < 6
pD2 [2]: 7.24
Intrinsic activity [3]: 0.7
Intrinsic activity [4]: 0.9
Activity [18]: Active
Emax [5]: 92%
pKb [6]: 7

C=CCc1ccccc1O[C@@H](C)C1=NCCN1
pD2 [2]: 7.19
Intrinsic activity [3]: 0.65
Intrinsic activity [4]: 0.9
pKb [6]: 7.8

c1ccc2oc(C3=NCCN3)cc2c1
Ki [8]: 26.9 µM
pKi [9]: 8.89
Activity [19]: 10 mg/kg
Activity [16]: 19 mg/kg
Ki [11]: 26.9 µM
Ki [14]: 26.9 µM

CC(Oc1ccccc1OC1CC1)C1=NCCN1 (centres undefined)
Ki [1]: 0.0148 µM
pKi [9]: < 6
Intrinsic activity [3]: 0.6
Intrinsic activity [4]: 0.7
pKb [6]: 6.9

C=CCc1ccccc1O[C@H](C)C1=NCCN1
pD2 [2]: < 5
Intrinsic activity [4]: 0.5
pEC50 [15]: inactive
pKb [6]: 7.4

C=CCc1ccccc1OCC1=NCCN1
Ki [8]: 0.126 µM
Ki [1]: 0.0708 µM
pKi [9]: 8.88
Activity [20]: >50%
Activity [21]: >50%
Activity [22]: Active
Intrinsic activity [10]: 0.73
Ki [11]: 0.708 µM
Activity [18]: inactive
EC50 [12]: 0.0617 µM
EC50 [13]: 0.977 µM
Activity [23]: inactive
Activity [24]: 50%
Ki [14]: 0.0708 µM
pKb [6]: 6.5
Activity [25]: Active

C[C@H](Oc1ccccc1CC1CC1)C1=NCCN1
Intrinsic activity [3]: 0.7
Intrinsic activity [4]: 0.85

Brc1ccccc1OCC1=NCCN1
Ki [8]: 0.0955 µM
Ki [1]: 0.562 µM
pKi [9]: 7.9
Intrinsic activity [10]: 0.88
Ki [11]: 0.617 µM
EC50 [12]: 0.0977 µM
EC50 [13]: 1.26 µM
Ki [14]: 0.398 µM
pKb [6]: 6.72

CCCc1ccccc1OCC1=NCCN1
Ki [8]: 0.049 µM
Ki [1]: 0.0794 µM
pKi [9]: 8.25
Intrinsic activity [10]: 0.9
Activity [26]: Active
Ki [11]: 0.55 µM
EC50 [12]: 0.155 µM
EC50 [13]: 2.51 µM
Ki [14]: 0.49 µM
pKb [6]: 6.28
